Source: EP0449346B1, “4-Piperidinyl-ergoline derivatives” (PHARMACIA S.p.A., priority 1990, dated 1991)

System: rats with unilateral 6-hydroxy dopamine-induced lesion of the dopaminergic nigrostriatal patway
Experiment: Turning behaviour in rats: induction of controlateral turnings after a single treatment
Type: in vivo
Source text: More in particular, the ergoline derivatives according to the invention are active as antiparkinson agents, owing to their dopaminergic activity. The dopaminergic activity is indicated e.g. by an induction of controlateral turnings in rats with unilateral 6-hydroxy dopamine-induced lesion of the dopaminergic nigrostriatal patway. [According to the principles of N.Ungerstedt et al., Brain Research 24,485 (1970)].

[1] = single treatment, 0.5 mg/Kg s.c., in 6 hours
[2] = single treatment, 0.5 mg/Kg s.c., turning rats / treated rats

Structure (SMILES) | Number of controlateral turns (X) in 6 hours (rat, in vivo, sc, 1 mg/kg) | Turning rats Treated rats (rat, in vivo, sc, 1 mg/kg) | Number of controlateral turns (X) in 6 hours [1] | Turning rats Treated rats [2]
CC(C)C[C@H]1C(=O)N2CCC[C@H]2[C@]2(O)O[C@](NC(=O)[C@@H]3C=C4c5cccc6[nH]c(Br)c(c56)C[C@H]4N(C)C3)(C(C)C)C(=O)N12 [Bromocriptine, bromocriptine, reference compound] | 1920 | 6/9 |  | 
CN1C[C@H](CC2CC(=O)NC(=O)C2)C=C2c3cccc4[nH]cc(c34)C[C@H]21 [Example 1, 4-[(6-Methylergolen-Δ9,10-8β-yl)methyl]-piperidin-2,6-dione] |  |  | 1540 | 4/4
CN1C(=O)CC(C[C@@H]2C=C3c4cccc5[nH]cc(c45)C[C@H]3N(C)C2)CC1=O [Example 5, 1-Methyl-4-[(6-methylergolen-Δ9,10-8β-yl)methyl]-piperidin-2,6-dione] |  |  | 1830 | 5/5
